Values after ≈ are worked out from the molar mass of the structure shown. Where two headings read alike, the source gives them in different places.
Columns and labels:
[1] = Kinetic solubility measurement; assay type: physicochemical; details: 10 mM DMSO stock solutions
Protocol: Kinetic Solubility Measurement: The standard kinetic solubility assay runs on […] concentration range using 10 mM DMSO stock solutions for plating. Single point calibration assay runs in duplicates. Concentration of standards: […] DMSO solutions prepared by diluting 10 mM stock, solution with DMSO. Concentration of samples: 200 µM, 4 µl 10 mM DMSO stock solution diluted with the appropriate buffer to […]. DMSO content:
2%. Buffers: pH=7.4 (0.1M Potassium phosphate buffer, diluted from Sigma 1M P3619-1GA to 0.1 M with MilliQ water), pH=2.2 (0.1M- NaCl pH adjusted with 0.1N HCL), pH=6.8 (0.1M - KH2PO4/K2HPO4), pH=5 (4 .04g of NaOH (Pellets), 8.65g of Glacial Acetic Acid, 11.874g of NaCl. In in 1 liter water. Adjusted to pH to 5 with either 1N NaOH or 1N HCl). The controls were plated from the standard 10 mM DMSO stock and run on the standard concentration (200µM) range of the assay. Incubation time: 24 hours shaking at […] in Millipore Multiscreen HTS filter plate for Aqueous Solubility Assay (MSSLBPC50), on room temperature.
After incubation time filtration with positive pressure manifold was performed. […]

[2] = system: O. gutturosa adult male worms; assay: O. gutturosa adult worm ex vivo assay, motility; assay type: cell-based, Onchocerca gutturosa
Protocol: (§1) Activity against O. gutturosa adult male worms was determined using reported procedures.[7] The EC50 values were calculated using Microsoft Office Excel (2010) data analysis software. The tested compound is considered active when a motility reduction of ≥50% is observed by comparison to the untreated controls. O. gutturosa adult male worms were obtained postmortem from freshly slaughtered cattle. The worms were dissected from the nuchal ligament connective tissues of naturally infected cattle in Gambia, West Africa; the material was purchased from the International Trypanotolerance Centre, Banjul, from local butchers for use in this study. The adult worms were transferred individually to each well of a sterile 24-well (2 mL) plate (Thermo Fisher Scientific, UK) and maintained for at least 24 h in culture before use. The medium used was a minimum essential medium (MEM) with Earl’s salts and L-glutamine (Life Technologies Ltd., UK) supplemented with 10% heat inactivated newborn calf serum (Life Technologies Ltd., UK), 200 units/mL penicillin, 200 μg/mL streptomycin, and 0.5 μg/mL amphotericin B (Life Technologies Ltd., UK). Only normally active worms were used for the test, and all assays were conducted at 37 °C and 5% CO2. The positive control drug used was Immiticide (melarsomine dihydrochloride, Merial, USA). Known amounts of compounds were solubilized in 1 mL of DMSO. All stock solutions were allowed to stand at room temperature prior to use. The test items (four worms/drug concentration) were compared to untreated controls (six worms) and the positive control (two worms/drug concentration). Drug efficacy was assessed by the measurement of mean worm motility scores on a scale of 0 (immotile) to 10 (maximum) every 24 h, terminating at 120 h, using an Olympus inverted microscope. The results are reported as a percentage of the maximum score obtainable (100%) by calculating the motility index scores. The test drug is considered active when a motility reduction of ≥50% is observed by comparison to the untreated controls. […] In addition, biochemical evaluation of worm viability was assessed using MTT/formazan colorimetry. The MTT assay was carried out after the last motility reading (120 h). Single intact worms were placed in each well of a 48-well plate (Thermo Fisher Scientific, UK) containing 0.5 mL of 0.5 mg/mL MTT (Sigma, UK) in PBS solution and then incubated for 30 min at 37 °C. The worms were removed, blotted carefully, and individually transferred to separate wells of a 96-well microtiter plate, each containing 200 μL of DMSO to solubilize the formazan. After 1 h, the plate was gently agitated to disperse the color evenly and the absorbance value (optical density, OD) of the resulting formazan solution was determined at 490 nm using an absorbance microplate reader (Biotek ELx800, Thermo Fisher Scientific, UK). The results are expressed as the mean OD per drug concentration. Inhibition of formazan formation is correlated with worm damage or death.
Data S1. Onchocerca gutturosa adult male worms EC 50 Curves
Plotted using Graph Pad Prism 7.03, least square original fit, sigmoidal, 4PL
The measurement of mean worm motility every 24 h, terminating at 120 h, serial 1 in 4 drug dilutions to find
activity endpoint and produce EC50 values (geomean, n=2) for motility reduction. (4 worms per drug […]

[3] = Liver S9 metabolic stability assay, rat; assay type: in vitro ADME; details: 3 μM, 60 min
Protocol: (§2) Liver S9 Metabolic Stability Assay: Incubations were performed at 37 °C in a Dubnoff Shaking water bath using 2 mL 96-well incubation plates. Rat and human S9 protein concentrations were 0.75 mg/ml and 1.2 mg/ml, respectively. The final concentrations of NADPH, UDPGA, and GSH were 1, 0.5, and 2.5 mM, and the final concentration of PAPS was 0.05 mg/ml. Substrate concentrations were 3µM, incubation time was 60 minutes, and all tests were done in triplicate. The incubation was conducted in 200 mM Tris buffer containing 2 mM magnesium chloride, pH=7.4 and the total incubation volume was 0.5 ml. Samples were analysed via LC-MS/MS and reported as percentage remaining after incubation for 60 minutes. […]

[4] = system: O. gutturosa adult male worms; assay: O. gutturosa adult worm ex vivo assay, MTT/formazan viability; assay type: cell-based, Onchocerca gutturosa; details: supplement, SD in brackets in the PDF table, read-out: O. gutturosa EC50 (uM) MTT viability inhibition
Protocol: as §1

[5] = LogD measurement (octanol-water); assay type: physicochemical
Protocol: LogD Measurement: Measurement of octanol-water distribution coefficient of samples using a […]
stock solutions for plating. Aqueous Phase: 100mM Buffer, pH=7.4 (0.1M Potassium phosphate buffer, diluted from Sigma 1M P3619-1GA to 0.1 M with MilliQ water), pH=2.2 (0.1M- NaCl pH adjusted with 0.1N HCL), pH=6.8 (0.1M - KH2PO4/K2HPO4), pH=5 (4 .04g of NaOH (Pellets), 8.65g of Glacial Acetic Acid, 11.874g of NaCl. In in 1 liter water. Adjusted to pH to 5 with either 1N NaOH or 1N HCl); Organic Phase: 1-Octanol (O021). Sample Concentration:
1000uM, […] 10 mM DMSO stock solution diluted in […] of organic Phase and […] of aqueous Phase. DMSO content: 10%. The controls were plated from the standard 10 mM DMSO stock and run on the standard concentration ([…]) range of the assay. Incubation time:
Sonication for 30 minutes followed by 24 hours shaking at 750 rpm in 96 deep well plate (VWR

[6] = Liver S9 metabolic stability assay, human; assay type: in vitro ADME; details: 3 μM, 60 min
Protocol: as §2

[7] = Onchocerca gutturosa, read-out: O. gutturosa EC50 μM (SD), ex vivo adult worm motility reduction, SD in brackets
[8] = Onchocerca gutturosa, read-out: O. gutturosa EC50 (uM) motility inhibition, supplement, SD in brackets in the PDF table
[9] = supplement, read-out: measured logD

CC(C)Oc1ccc(-c2nsc(Nc3cc(C(F)(F)F)c(C(C)C)cn3)n2)nc1 [Compound 37]
solubility kinetic at 24 h [1]: 1.00 µM (≈ 0.423 µg/mL) | EC50 [2, 7]: 0.05 µM | EC50 [2, 8]: 0.053 µM | Rat S9 metabolic stability [3]: 100 % remaining | EC50 ([4]; Onchocerca gutturosa): 0.3 µM | logD at 24 h ([5]; pH 7.4, read-out: logD): 2.8 | logD at 24 h [5, 9]: 2.8 | Human S9 metabolic stability [6]: 100 % remaining

CC(C)Oc1cc(-c2nsc(Nc3ncccc3N(C)C)n2)ncc1C(F)(F)F [Compound 33]
solubility kinetic at 24 h [1]: 1.43 µM (≈ 0.607 µg/mL) | EC50 [2, 7]: 0.85 µM | EC50 [2, 8]: 0.852 µM | Rat S9 metabolic stability [3]: 8 % remaining | EC50 ([4]; Onchocerca gutturosa): 0.83 µM | logD at 24 h ([5]; pH 7.4, read-out: logD): 3 | logD at 24 h [5, 9]: 3 | Human S9 metabolic stability [6]: 100 % remaining

3-(3-Methyl-2-pyridyl)-N-(5-pyrrolidin-1-yl-2-pyridyl)-1,2,4-thiadiazol-5-amine [Compound 21]
solubility kinetic at 24 h [1]: 2.17 µM | EC50 ([2]; adult worm motility, bound stated, read-out: O. gutturosa EC50): < 0.1 µM | EC50 ([2]; supplement, SD in brackets in the PDF table, read-out: O. gutturosa EC50 (uM) motility inhibition): 0.044 µM | Rat S9 metabolic stability [3]: 61 % remaining | EC50 [4]: 0.14 µM | logD ([5]; pH 7.4): 2.65 | measured logD ([5]; supplement): 2.65 | Human S9 metabolic stability [6]: 86 % remaining

CC(C)Oc1ccc(-c2nsc(N(C)c3ncccc3C(C)C)n2)nc1 [Compound 44, 3-(5-Isopropoxypyridin-2-yl)-N-(3-isopropylpyridin-2-yl)-N-methyl-1,2,4-thiadiazol-5-amine]
solubility kinetic at 24 h [1]: 121 µM (≈ 44.7 µg/mL) | EC50 [2, 7]: 1.67 µM | Rat S9 metabolic stability [3]: 4 % remaining | EC50 ([4]; Onchocerca gutturosa): 1.4 µM | logD at 24 h ([5]; pH 7.4, read-out: logD): 3 | logD at 24 h [5, 9]: 3 | Human S9 metabolic stability [6]: 32 % remaining

Cc1cccnc1N(C)c1nc(-c2ccc(OC(C)C)cn2)ns1 [Compound 42, 3-(5-Isopropoxypyridin-2-yl)-N-methyl-N-(3-methylpyridin-2-yl)-1,2,4-thiadiazol-5-amine]
solubility kinetic at 24 h [1]: 33.5 µM (≈ 11.4 µg/mL) | EC50 [2, 7]: 0.2 µM | EC50 [2, 8]: 0.21 µM | EC50 ([2]; read-out: O. gutturosa EC50 (uM) motility inhibition, supplement, SD in brackets in the PDF table): 0.212 µM | Rat S9 metabolic stability [3]: 81 % remaining | EC50 ([4]; Onchocerca gutturosa): 0.36 µM | EC50 [4]: 0.357 µM | logD at 24 h ([5]; pH 7.4, read-out: logD): 2.35 | logD at 24 h [5, 9]: 2.35 | Human S9 metabolic stability [6]: 96 % remaining

Cc1nccnc1Nc1nc(-c2ccc(OC(C)C)cn2)ns1 [Compound 41, 3-(5-Isopropoxy-2-pyridyl)-N-(3-methylpyrazin-2-yl)-1,2,4-thiadiazol-5-amine]
solubility kinetic at 24 h [1]: 24.5 µM (≈ 8.04 µg/mL) | EC50 [2, 7]: 0.06 µM | EC50 [2, 8]: 0.058 µM | Rat S9 metabolic stability [3]: 100 % remaining | EC50 ([4]; Onchocerca gutturosa): < 0.19 µM | logD at 24 h ([5]; pH 7.4, read-out: logD): 2.7 | logD at 24 h [5, 9]: 2.7 | Human S9 metabolic stability [6]: 94 % remaining

CC(=O)N(C)c1cc(C(F)(F)F)cnc1Nc1nc(-c2ccccn2)ns1 [Compound 53]
solubility kinetic at 24 h [1]: 4.05 µM (≈ 1.6 µg/mL) | EC50 [2, 7]: 0.05 µM | EC50 [2, 8]: 0.047 µM | EC50 ([4]; Onchocerca gutturosa): 0.15 µM | logD at 24 h ([5]; pH 7.4, read-out: logD): 2.2 | logD at 24 h [5, 9]: 2.2

CN1CCC(Oc2ccc(Nc3nc(-c4ccccn4)ns3)nc2)CC1 [Compound 36, N-(5-((1-Methylpiperidin-4-yl)oxy)pyridin-2-yl)-3-(pyridin-2-yl)-1,2,4-thiadiazol-5-amine]
solubility kinetic at 24 h [1]: 193 µM (≈ 71.3 µg/mL) | EC50 [2, 7]: 1.12 µM | Rat S9 metabolic stability [3]: 99 % remaining | logD at 24 h ([5]; pH 7.4, read-out: logD): 1.7 | logD at 24 h [5, 9]: 1.7 | Human S9 metabolic stability [6]: 88 % remaining

CC(C)Oc1ccc(-c2nsc(Nc3ncc(C(F)(F)F)cc3C(=O)N(C)C)n2)nc1 [Compound 57]
solubility kinetic at 24 h [1]: 3.27 µM (≈ 1.48 µg/mL) | EC50 [2, 7]: 0.58 µM | EC50 [2, 8]: 0.578 µM | EC50 ([4]; Onchocerca gutturosa): 1.3 µM | logD at 24 h ([5]; pH 7.4, read-out: logD): 3.2 | logD at 24 h [5, 9]: 3.2

CNC(=O)c1cccnc1Nc1nc(-c2ccc(OC(C)C)cn2)ns1 [Compound 60, 2-((3-(5-Isopropoxypyridin-2-yl)-1,2,4-thiadiazol-5-yl)amino)-N-methylnicotinamide]
solubility kinetic at 24 h [1]: 10.2 µM (≈ 3.76 µg/mL) | EC50 [2, 7]: 0.67 µM | EC50 ([4]; Onchocerca gutturosa): 2.4 µM | logD at 24 h ([5]; pH 7.4, read-out: logD): 1.8 | logD at 24 h [5, 9]: 1.8

— article PMC9421654, “Discovery of Substituted Di(pyridin-2-yl)-1,2,4-thiadiazol-5-amines as Novel Macrofilaricidal Compounds for the Treatment of Human Filarial Infections” (Journal of Medicinal Chemistry, 2022)
